From paper PMC9631757 (2022)

Test system: CBZ aptamer (DNA, aptamer) CGAGGCTCTCGGGACGACGGGGCACGGGCCTCTGGGTCGGCATGGCCCGTCGTCCCGCCTTTAGGATTTACAG
Settings: upper bound only; assay and buffer not stated

Kd: < 12 nM
Compound: NC(=O)N1c2ccccc2C=Cc2ccccc21
